The first experiment deals with T1, human STING (hSTING) (Homo sapiens, UniProt Q86WV6).
T1 construct: host or cells: HEK-Blue ISG cells (HEK293-derived SEAP reporter line)
T1 sequence (Q86WV6 whole entry H232R): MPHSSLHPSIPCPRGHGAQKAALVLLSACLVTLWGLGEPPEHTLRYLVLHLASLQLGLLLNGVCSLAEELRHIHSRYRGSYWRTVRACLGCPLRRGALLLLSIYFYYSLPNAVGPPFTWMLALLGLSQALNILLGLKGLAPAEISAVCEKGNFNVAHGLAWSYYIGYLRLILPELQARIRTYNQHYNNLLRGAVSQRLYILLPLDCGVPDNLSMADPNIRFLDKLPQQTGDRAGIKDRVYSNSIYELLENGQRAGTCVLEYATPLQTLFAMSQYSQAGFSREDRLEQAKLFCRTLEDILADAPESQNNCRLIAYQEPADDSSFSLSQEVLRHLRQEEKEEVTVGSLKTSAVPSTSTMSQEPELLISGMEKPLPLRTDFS
Put plainly: Inhibition test of intracellular human STING (hSTING) pathway using SEAP reporter cells (HEK-Blue ISG), stimulation with Compound 3. It counts as cell-based. Also on record: hSTING inhibitory activity: scale not given here. The conditions noted are these: Compound 3 10 nM stimulation, 21 hours. A digest of the protocol: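 IC50 derived by regressing inhibition rate against log compound concentration (0.1 to 10 μM final, added 1 h before agonist), with 0% and 100% set by wells without and with 10 nM Compound 3. SEAP colour reaction read after 21 h stimulation of HEK-Blue ISG reporter cells.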
Consider `Cc1ccnc2c(Nc3nc4cc(Oc5ccccc5)ccc4[nH]3)c[nH]c12` [Embodiment 52, N-(7-methyl-1H-pyrrolo[3,2-b]pyridin-3-yl)-5-phenoxy-1H-benzo[d]imidazol-2-amine], for which the hSTING inhibitory activity entry is recorded as “* *”.
On the same count and under the same terms, as for `Cn1c(Nc2c[nH]c3ccc(Cl)nc23)nc2cc(C(F)(F)F)ccc21` [Embodiment 47, N-(5-Chloro-1H-pyrrolo[3,2-b]pyridin-3-yl)-1-methyl-5-(trifluoromethyl)-1H-benzo[d] imidazol-2-amine], the entry is “* *”.
Still for that read-out and setting: as for `ClC(=CC1CC1)c1ccc2[nH]c(Nc3c[nH]c4ccc(Cl)nc34)nc2c1` [Embodiment 126, N-(5-chloro-1H-pyrrolo[3,2-b]pyridin-3-yl)-5-(1-chloro-2-cyclopropylvinyl)-1H-benzo[d] imidazole-2-amine], the entry is “* *”; as for `CNn1c(Nc2c[nH]c3ccc(C)cc23)nc2cc(C(F)(F)F)cc(F)c21` [Embodiment 277, 7-fluoro-N1-methyl-N2-(5-methyl-1H-indol-3-yl)-5-(trifluoromethyl)-1H-benzo[d]imidazole-1,2-diamine], “* * *”.
Same read-out and setting: as for `O=C(Nc1ccccc1)c1ccc2[nH]cc(Nc3nc4cc(Oc5ccccc5)ccc4[nH]3)c2c1` [Example 30, 3-[(5-phenoxy-1H-benzo[d]imidazol-2-yl)amino]-N-phenyl-1H-indole-5-carboxamide], the entry is “* *”; as for `Cn1c(Nc2c[nH]c3ccc(Br)nc23)nc2ccc(Oc3ccccc3)cc21` [Embodiment 40, N-(5-bromo-1H-pyrrolo[3,2-b]pyridin-3-yl)-1-methyl-6-phenoxy-1H-benzo[d]imidazol-2-amine], “* * *”; as for `CNn1c(Nc2c[nH]c3ccc(F)c(F)c23)nc2cc(C(F)(F)F)cc(F)c21` [Embodiment 272, N2-(4,5-difluoro-1H-indol-3-yl)-7-fluoro-N1-methyl-5-(trifluoromethyl)-1H-benzo[d]imidazole-1,2-diamine], “* * *”.
With `Brc1cnc2[nH]cc(Nc3nc4cc(Oc5ccccc5)ccc4[nH]3)c2c1` [Example 10, N-(5-bromo-1H-pyrrolo[2,3-b]pyridin-3-yl)-5-phenoxy-1H-benzo[d]imidazol-2-amine], the hSTING inhibitory activity result is “* *”.
The same measure, in the same setting: as for `CN(C)n1c(Nc2c[nH]c3cc(F)c(F)cc23)nc2cc(C(F)(F)F)cc(F)c21` [Embodiment 279, N2-(5,6-difluoro-1H-indol-3-yl)-7-fluoro-N1,N1-dimethyl-5-(trifluoromethyl)-1H-benzo[d] imidazole-1,2-diamine], the entry is “* *”; as for `Fc1cc(C2CCOCC2)cc2nc(Nc3c[nH]c4ccc(Cl)nc34)[nH]c12` [Embodiment 175, N-(5-Chloro-1H-pyrrolo[3,2-b]pyridin-3-yl)-7-fluoro-5-(tetrahydro-2H-pyran-4-yl)-1H-benzo[d]imidazol-2-amine], “* *”; as for `Clc1ccc2[nH]cc(Nc3nc4cc(C5=CCOCC5)ccc4[nH]3)c2n1` [Embodiment 105, N-(5-chloro-1H-pyrrolo[3,2-b]pyridin-3-yl)-5-(3,6-dihydro-2H-pyran-4-yl)-1H-benzo[d] imidazol-2-amine], “* *”.
On the same count and under the same terms, as for `COC(=O)c1ccc2[nH]c(Nc3c[nH]c4ccc(Br)nc34)nc2c1` [Embodiment 34, methyl 2-[(5-bromo-1H-pyrrolo[3,2-b]pyridin-3-yl)amino]-1H-benzo[d]imidazole-5-carboxylate], the entry is “* *”; as for `CC=C(Cl)c1ccc2[nH]c(Nc3c[nH]c4ccc(Cl)nc34)nc2c1` [Embodiment 137, N-(5-Chloro-1H-pyrrolo[3,2-b]pyridin-3-yl)-5-(1-chloroprop-1-en-1-yl)-1H-benzo[d]imidazole-2-amine], “* * *”.
`Cc1c(C(F)(F)F)ccc2c1nc(Nc1c[nH]c3ccc(Cl)cc13)n2C` [Embodiment 276, N-(5-Chloro-1H-indol-3-yl)-1,4-dimethyl-5-(trifluoromethyl)-1H-benzo[d]imidazol-2-amine]: the hSTING inhibitory activity result is on record as “* * *”.

The same experiment, now with this note: Compound 3 10 nM stimulation, 21 hours, read-out: hSTING inhibitory activity.
With `Clc1ccc2[nH]cc(Nc3nc4c(C5=CCOCC5)cccc4[nH]3)c2n1` [Embodiment 149, N-(5-chloro-1H-pyrrolo[3,2-b]pyridin-3-yl)-4-(3,6-dihydro-2H-pyran-4-yl)-1H-benzo[d]imidazol-2-amine], the IC50 is 1 to 10 µM.
Still for that read-out and setting: the value for `Cn1c(Nc2c[nH]c3ccc(Cl)nc23)nc2c(F)c(F)ccc21` [Embodiment 183, N-(5-Chloro-1H-pyrrolo[3,2-b]pyridin-3-yl)-4,5-difluoro-1-methyl-1H-benzo[d]imidazol-2-amine] was ≥ 10 µM.
As to `Cc1cnc2[nH]cc(Nc3nc4cc(Oc5ccccc5)ccc4[nH]3)c2c1` [Embodiment 107, N-(5-methyl-1H-pyrrolo[2,3-b]pyridin-3-yl)-5-phenoxy-1H-benzo[d]imidazol-2-amine], the IC50 was ≥ 10 µM.
On the same count and under the same terms, the value for `c1ccc(Oc2ccc3[nH]c(Nc4c[nH]c5c(-c6ccncc6)ccnc45)nc3c2)cc1` [Embodiment 163, 5-phenoxy-N-[7-(pyridin-4-yl)-1H-pyrrolo[3,2-b]pyridin-3-yl]-1H-benzo[d]imidazol-2-amine] was ≥ 10 µM; that for `c1ccc(Oc2ccc3[nH]c(Nc4c[nH]c5c(-c6cccnc6)ccnc45)nc3c2)cc1` [Embodiment 164, 5-phenoxy-N-[7-(pyridin-3-yl)-1H-pyrrolo[3,2-b]pyridin-3-yl]-1H-benzo[d]imidazol-2-amine] was 1 to 10 µM.
`Clc1ccc2[nH]cc(Nc3nc4cc(-c5ccc(CN6CCOCC6)cc5)ccc4[nH]3)c2n1` [Embodiment 98, N-(5-Chloro-1H-pyrrolo[3,2-b]pyridin-3-yl)-5-[4-(morpholinomethyl)phenyl]-1H-benzo[d] imidazol-2-amine]: the IC50 was ≥ 10 µM.
The same measure, in the same setting: as for `CCCCn1c(Nc2c[nH]c3ccc(Br)nc23)nc2cc(Oc3ccccc3)ccc21` [Embodiment 90, N-(5-bromo-1H-pyrrolo[3,2-b]pyridin-3-yl)-1-butyl-5-phenoxy-1H-benzo[d]imidazol-2-amine], the figure is 1 to 10 µM; as for `Cn1c(Nc2c[nH]c3ccc(Cl)nc23)nc2cc(C3CCOCC3)ccc21` [Embodiment 153, N-(5-chloro-1H-pyrrolo[3,2-b]pyridin-3-yl)-1-methyl-5-(tetrahydro-2H-pyran-4-yl)-1H-benzo[d] imidazol-2-amine], ≥ 10 µM.
For the compound `CN1CCC(Oc2ccc3[nH]c(Nc4c[nH]c5ccc(Cl)nc45)nc3c2)CC1` [Embodiment 121, N-(5-Chloro-1H-pyrrolo[3,2-b]pyridin-3-yl)-5-[(1-methylpiveridin-4-yl)oxy]-1H-benzo[d]imidazole-2-amine], the IC50 was in the range of 1 to 10 µM.
With `Cc1ccc2c(c1)nc(Nc1c[nH]c3ccc(Cl)nc13)n2C` [Embodiment 156, N-(5-Chloro-1H-pyrrolo[3,2-b]pyridin-3-yl)-1,5-dimethyl-1H-benzo [d]imidazol-2-amine], the IC50 is ≥ 10 µM.
Still for that read-out and setting: the value for `Clc1ccc2[nH]cc(Nc3nc4cc(OC5CCOCC5)ccc4[nH]3)c2n1` [Embodiment 142, N-(5-Chloro-1H-pyrrolo[3,2-b]pyridin-3-yl)-5-[(tetrahydro-2H-pyran-4-yl)oxy)-1H-benzo[d] imidazol-2-amine] was ≥ 10 µM.
In the case of `COCCn1c(Nc2c[nH]c3ccc(Cl)nc23)nc2c(F)cc(F)cc21` [Embodiment 202, N-(5-chloro-1H-pyrrolo[3,2-b]pyridin-3-yl)-4,6-difluoro-1-(2-methoxyethyl)-1H-benzo[d]imidazole-2-amine], the IC50 was ≥ 10 µM.
On the same count and under the same terms, the value for `Cn1c(Nc2c[nH]c3ccc(Br)nc23)nc2ccc(C(F)(F)F)cc21` [Embodiment 42, N-(5-bromo-1H-pyrrolo[3,2-b]pyridin-3-yl)-1-methyl-6-(trifluoromethyl)-1H-benzo[d]imidazol-2-amine] was ≥ 10 µM.
As for `CCc1ccc2[nH]cc(Nc3nc4cc(C(F)(F)F)ccc4n3C)c2n1` [Embodiment 173, N-(5-ethyl-1H-pyrrolo[3,2-b]pyridin-3-yl)-1-methyl-5-(trifluoromethyl)-1H-benzo[d]imidazol-2-amine], the IC50 was ≥ 10 µM.
Consider `Clc1ccc2[nH]cc(Nc3nc4cc5c(cc4[nH]3)OCCO5)c2n1` [Embodiment 141, N-(5-chloro-1H-pyrrolo[3,2-b]pyridin-3-yl)-6,7-dihydro-1H-[1,4] dioxino[2′,3′:4, 5]benzo[1,2-d]imidazol-2-amine], for which the IC50 lay in the range of 1 to 10 µM.

A further experiment has as its system STING activation (IFN-β production in THP-1 cells). In words: Human IFN-β production inhibition test by cGAMP stimulation in THP-1 cells. Set-up: IFN-β bioinhibitory activity: scale not given here. It counts as cell-based. The conditions noted are these: 2'3'-cGAMP transfection, 18 hours, IFN-β ELISA. The protocol:
Human IFN-β production inhibition test by cGAMP stimulation
The inhibitory activity of test compounds against STING activation was evaluated by measuring the amount of IFN-β produced when human monocytic cell line THP-1 cells were stimulated with the endogenous ligand cGAMP.
After seeding THP-1 cells (ATCC) in a 96-well plate, PMA (Santa Cruz Biotechnology) adjusted to a concentration of 100 nM after addition was added, and incubated at 37° C. in a 5% CO2 incubator. It was cultured overnight (RPMI1640 medium containing 10% FBS, 50 U/mL penicillin/50 μg/mL streptomycin). A test compound solution adjusted to a final concentration of 0.001 to 1 μM was added to each well of this plate and cultured for 1 hour in a CO2 incubator (DMSO final concentration 0.1%). 0.12 μg/well of 2′3′-cGAMP (Invivogen, #tlrl-nacga23) was introduced into the cells by transfection using Lipofectamine2000 (Invitrogen) and cultured in a CO incubator for an additional 18 hours. After collecting the culture supernatant from each well, the amount of human IFN-β produced in the culture supernatant was measured by ELISA using R&D human IFN-β Duoset (R&D Systems).
Assuming that the human IFN-β production amount of the test compound-free and cGAMP-added group is 100%, and the human IFN-β production amount of the test compound-free and cGAMP-free group is 0%, the IC50 value was determined by regression analysis of the inhibitory rate determined from the amount of human IFN-β production at each compound concentration and the concentration of the test compound (logarithm).
As for `Cn1c(Nc2c[nH]c3ccc(Cl)nc23)nc2cc(C(F)(F)F)ccc21` [Embodiment 47, N-(5-Chloro-1H-pyrrolo[3,2-b]pyridin-3-yl)-1-methyl-5-(trifluoromethyl)-1H-benzo[d] imidazol-2-amine], the IFN-β bioinhibitory activity result is given as “* *”.

The same experiment, now with this note: Homo sapiens, 2'3'-cGAMP transfection, 18 hours, IFN-β ELISA, read-out: IFN-β bioinhibitory activity.
Take `Cc1ccnc2c(Nc3nc4cc(Oc5ccccc5)ccc4[nH]3)c[nH]c12` [Embodiment 52, N-(7-methyl-1H-pyrrolo[3,2-b]pyridin-3-yl)-5-phenoxy-1H-benzo[d]imidazol-2-amine]: the IC50 lay in the range of 0.1 to 1 µM.
On the same count and under the same terms, the value for `Clc1ccc2[nH]cc(Nc3nc4c(C5=CCOCC5)cccc4[nH]3)c2n1` [Embodiment 149, N-(5-chloro-1H-pyrrolo[3,2-b]pyridin-3-yl)-4-(3,6-dihydro-2H-pyran-4-yl)-1H-benzo[d]imidazol-2-amine] was 0.1 to 1 µM.
